Results: patent US8450270B2 (Indiana University Research and Technology Corporation, priority 2008, dated 2013)
Each block holds one compound with its values, some of them ahead of it. Square brackets hold non-standard residues; d marks the D form. Peptide text beside a SMILES is read from it. Aib = CC(C)(N)C(=O)O

Target: Glucagon Receptor (Homo sapiens, UniProt P47871)
Test: Functional assay-cAMP synthesis (luciferase reporter, HEK293), glucagon receptor
Details: for % activity*: glucagon receptor
[1] = EC50 at the glucagon receptor, Example 20
[2] = EC50 at Glucagon Receptor (nM), Table 7

Glucagon Receptor, sequence (P47871 26-477): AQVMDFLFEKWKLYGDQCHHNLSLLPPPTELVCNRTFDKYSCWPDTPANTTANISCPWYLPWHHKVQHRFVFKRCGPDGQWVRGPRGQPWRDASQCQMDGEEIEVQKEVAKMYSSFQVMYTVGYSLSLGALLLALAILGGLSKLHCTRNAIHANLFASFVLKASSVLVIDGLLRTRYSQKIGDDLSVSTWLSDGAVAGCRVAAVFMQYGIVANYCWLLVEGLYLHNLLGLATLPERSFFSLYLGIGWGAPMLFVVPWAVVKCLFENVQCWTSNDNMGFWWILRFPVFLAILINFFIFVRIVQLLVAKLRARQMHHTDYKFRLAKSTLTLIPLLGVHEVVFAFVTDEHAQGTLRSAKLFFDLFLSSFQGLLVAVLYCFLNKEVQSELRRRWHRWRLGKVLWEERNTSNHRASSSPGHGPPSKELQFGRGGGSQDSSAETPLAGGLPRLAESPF

Structure (SMILES): CCCC[C@H](NC(=O)[C@H](CC(C)C)NC(=O)[C@H](Cc1c[nH]c2ccccc12)NC(=O)[C@H](C)NC(=O)[C@@H](NC(=O)[C@H](Cc1ccccc1)NC(=O)[C@H](CCC(=O)O)NC(=O)[C@H](C)NC(=O)[C@H](C)NC(=O)[C@H](CCCNC(=N)N)NC(=O)[C@H](CCCNC(=N)N)NC(=O)[C@@H](NC(=O)[C@H](CC(=O)O)NC(=O)[C@H](CC(C)C)NC(=O)[C@H](Cc1ccc(O)cc1)NC(=O)[C@H](CCCCN)NC(=O)[C@H](CO)NC(=O)[C@H](Cc1ccc(O)cc1)NC(=O)[C@H](CC(=O)O)NC(=O)[C@H](CO)NC(=O)[C@@H](NC(=O)[C@H](Cc1ccccc1)NC(=O)[C@@H](NC(=O)CNC(=O)[C@H](CCC(N)=O)NC(=O)[C@H](CO)NC(=O)[C@@H](N)Cc1c[nH]cn1)[C@@H](C)O)[C@@H](C)O)[C@@H](C)O)C(C)C)C(=O)N[C@@H](CC(=O)O)C(=O)N[C@@H](CCC(=O)O)C(=O)O [SEQ ID NO: 61]
- glucagon activity (cAMP induction) (FIG. 11): retains substantial glucagon activity
- % activity* (Table 7): 25%

Structure (SMILES): CCCC[C@H](NC(=O)[C@H](CC(C)C)NC(=O)[C@H](Cc1c[nH]c2ccccc12)NC(=O)[C@H](C)NC(=O)[C@@H](NC(=O)[C@H](Cc1ccccc1)NC(=O)[C@H](CCC(=O)O)NC(=O)[C@H](C)NC(=O)[C@H](C)NC(=O)[C@H](CCCNC(=N)N)NC(=O)[C@H](CCCNC(=N)N)NC(=O)[C@@H](NC(=O)[C@H](CC(=O)O)NC(=O)[C@H](CC(C)C)NC(=O)[C@H](Cc1ccc(O)cc1)NC(=O)[C@H](CCCCN)NC(=O)[C@H](CO)NC(=O)[C@H](Cc1ccc(O)cc1)NC(=O)[C@H](CC(=O)O)NC(=O)[C@H](CO)NC(=O)[C@@H](NC(=O)[C@H](Cc1ccccc1)NC(=O)[C@@H](NC(=O)CNC(=O)[C@H](CSCNC(C)=O)NC(=O)[C@H](CO)NC(=O)[C@@H](N)Cc1c[nH]cn1)[C@@H](C)O)[C@@H](C)O)[C@@H](C)O)C(C)C)C(=O)N[C@@H](CC(=O)O)C(=O)N[C@@H](CCC(=O)O)C(=O)O [SEQ ID NO: 62]
- EC50 [2]: 0.18 nM
- % activity* (Table 7): 33%

Structure (SMILES): CCCC[C@H](NC(=O)[C@H](CC(C)C)NC(=O)[C@H](Cc1c[nH]c2ccccc12)NC(=O)[C@H](C)NC(=O)[C@@H](NC(=O)[C@H](Cc1ccccc1)NC(=O)[C@H](CCC(=O)O)NC(=O)[C@H](C)NC(=O)[C@H](C)NC(=O)[C@H](CCCNC(=N)N)NC(=O)[C@H](CCCNC(=N)N)NC(=O)[C@@H](NC(=O)[C@H](CC(=O)O)NC(=O)[C@H](CC(C)C)NC(=O)[C@H](Cc1ccc(O)cc1)NC(=O)[C@H](CCCCN)NC(=O)[C@H](CO)NC(=O)[C@H](Cc1ccc(O)cc1)NC(=O)[C@H](CC(=O)O)NC(=O)[C@H](CO)NC(=O)[C@@H](NC(=O)[C@H](Cc1ccccc1)NC(=O)[C@@H](NC(=O)CNC(=O)[C@H](CCNC(C)=O)NC(=O)[C@H](CO)NC(=O)[C@@H](N)Cc1c[nH]cn1)[C@@H](C)O)[C@@H](C)O)[C@@H](C)O)C(C)C)C(=O)N[C@@H](CC(=O)O)C(=O)N[C@@H](CCC(=O)O)C(=O)O [SEQ ID NO: 63]
- % activity* (Table 7): 19%

Structure (SMILES): CCCC[C@H](NC(=O)[C@H](CC(C)C)NC(=O)[C@H](Cc1c[nH]c2ccccc12)NC(=O)[C@H](C)NC(=O)[C@@H](NC(=O)[C@H](Cc1ccccc1)NC(=O)[C@H](CCC(=O)O)NC(=O)[C@H](C)NC(=O)[C@H](C)NC(=O)[C@H](CCCNC(=N)N)NC(=O)[C@H](CCCNC(=N)N)NC(=O)[C@@H](NC(=O)[C@H](CC(=O)O)NC(=O)[C@H](CC(C)C)NC(=O)[C@H](Cc1ccc(O)cc1)NC(=O)[C@H](CCCCN)NC(=O)[C@H](CO)NC(=O)[C@H](Cc1ccc(O)cc1)NC(=O)[C@H](CC(=O)O)NC(=O)[C@H](CO)NC(=O)[C@@H](NC(=O)[C@H](Cc1ccccc1)NC(=O)[C@@H](NC(=O)CNC(=O)[C@H](CNC(N)=O)NC(=O)[C@H](CO)NC(=O)[C@@H](N)Cc1c[nH]cn1)[C@@H](C)O)[C@@H](C)O)[C@@H](C)O)C(C)C)C(=O)N[C@@H](CC(=O)O)C(=O)N[C@@H](CCC(=O)O)C(=O)O [SEQ ID NO: 64]
- EC50 [2]: 0.48 nM
- % activity* (Table 7): 13%

Other lines, results leading:

- EC50 [1]: 0.08 nM
Structure (SMILES): CSCC[C@H](NC(=O)[C@H](CC(C)C)NC(=O)[C@H](Cc1c[nH]c2ccccc12)NC(=O)[C@H](CCC(N)=O)NC(=O)[C@@H](NC(=O)[C@H](Cc1ccccc1)NC(=O)[C@H](CC(=O)O)NC(=O)[C@H](CCC(N)=O)NC(=O)[C@H](C)NC(=O)[C@H](CCCNC(=N)N)NC(=O)[C@H](CCCNC(=N)N)NC(=O)C(C)(C)NC(=O)[C@H](CC(=O)O)NC(=O)[C@H](CC(C)C)NC(=O)[C@H](Cc1ccc(O)cc1)NC(=O)[C@H](CCCCN)NC(=O)[C@H](CO)NC(=O)[C@H](Cc1ccc(O)cc1)NC(=O)[C@H](CC(=O)O)NC(=O)[C@H](CO)NC(=O)[C@@H](NC(=O)[C@H](Cc1ccccc1)NC(=O)[C@@H](NC(=O)CNC(=O)[C@H](CCC(N)=O)NC(=O)[C@H](CO)NC(=O)[C@@H](N)Cc1c[nH]cn1)[C@@H](C)O)[C@@H](C)O)C(C)C)C(=O)N[C@@H](CC(=O)O)C(=O)N[C@@H](CCC(=O)O)C(=O)O [AIB16/D28/E29 Glucagon] (H-HSQGTFTSDYSKYLD[Aib]RRAQDFVQWLMDE-OH; N-terminus and C-terminus assumed)

- EC50 [1]: 0.06 nM
Structure (SMILES): CSCC[C@H](NC(=O)[C@H](CC(C)C)NC(=O)[C@H](Cc1c[nH]c2ccccc12)NC(=O)[C@H](CCC(N)=O)NC(=O)[C@@H](NC(=O)[C@H](Cc1ccccc1)NC(=O)[C@H](CC(=O)O)NC(=O)[C@H](CCC(N)=O)NC(=O)[C@H](C)NC(=O)[C@H](CCCNC(=N)N)NC(=O)[C@H](CCCNC(=N)N)NC(=O)[C@H](CO)NC(=O)[C@H](CC(=O)O)NC(=O)[C@H](CC(C)C)NC(=O)[C@H](Cc1ccc(O)cc1)NC(=O)[C@H](CCCCN)NC(=O)[C@H](CO)NC(=O)[C@H](Cc1ccc(O)cc1)NC(=O)[C@H](CC(=O)O)NC(=O)[C@H](CO)NC(=O)[C@@H](NC(=O)[C@H](Cc1ccccc1)NC(=O)[C@@H](NC(=O)CNC(=O)[C@H](CCC(N)=O)NC(=O)[C@H](CO)NC(=O)[C@@H](N)Cc1c[nH]cn1)[C@@H](C)O)[C@@H](C)O)C(C)C)C(=O)N[C@@H](CC(=O)O)C(=O)N[C@@H](CCC(=O)O)C(=O)O [D28, E29]

- EC50 (EC50 at Glucagon Receptor (nM), Table 10): 0.01 nM
Structure (SMILES): CCCCCCCCCCCCCCCC(=O)NCCCCCC(=O)NCCCC[C@H](NC(=O)[C@H](CC(=O)O)NC(=O)[C@H](CO)NC(=O)[C@@H](NC(=O)[C@H](Cc1ccccc1)NC(=O)[C@@H](NC(=O)CNC(=O)[C@H](CCC(N)=O)NC(=O)C(C)(C)NC(=O)[C@@H](N)Cc1c[nH]cn1)[C@@H](C)O)[C@@H](C)O)C(=O)N[C@@H](CO)C(=O)N[C@@H](CCCCN)C(=O)N[C@@H](Cc1ccc(O)cc1)C(=O)N[C@@H](CC(C)C)C(=O)N[C@@H](CC(=O)O)C(=O)NC(C)(C)C(=O)N[C@@H](CCCNC(=N)N)C(=O)N[C@@H](CCCNC(=N)N)C(=O)N[C@@H](C)C(=O)N[C@@H](CCC(N)=O)C(=O)N[C@@H](CC(=O)O)C(=O)N[C@@H](Cc1ccccc1)C(=O)N[C@H](C(=O)N[C@@H](CCC(N)=O)C(=O)N[C@@H](Cc1c[nH]c2ccccc12)C(=O)N[C@@H](CC(C)C)C(=O)N[C@@H](CCSC)C(=O)N[C@@H](CC(N)=O)C(=O)N[C@H](C(N)=O)[C@@H](C)O)C(C)C [Peptide 85, HXQGTFTSDKSKYLDXRRAQDFVQWLMNT-NH2]
